Key:
MOLM-13 = assay: Cell proliferation inhibition (CellTiter-Glo), MOLM-13; type: cell-based; details: Homo sapiens, MOLM-13, 168 h, MOLM-13 cells
In short: (§1)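 CellTiter-Glo luminescence read-out (10 min RT) after 72-168 h culture at 37° C, 5% CO2; cells plated 5,000-20,000/well; compound final 1 nM-10 μM; IC50 from curve fit.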

MV4-11 = assay: Cell proliferation inhibition (CellTiter-Glo), MV4-11; type: cell-based; details: Homo sapiens, MV4-11, 72 h, MV4-11 cells
In short: as §1

[1] = Stability in dog liver microsomes; type: in vitro ADME; details: dog, liver microsomes, pH 7.4, Dog; 0.5 mg/mL microsomal protein, 1.00 μM compound, NADPH; read-out: Half life T1/2, dog liver microsomes
In short: (§2)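 Compound at 1.00 μM incubated at 37° C with 0.5 mg/mL liver microsomal protein and 2.00 mM NADPH in 100 mM phosphate buffer pH 7.4, sampled 0–60 min with acetonitrile quench. Parent remaining by LC-MS/MS; T½ from ln-remaining slope, CLint scaled by microsomal concentration and conversion factor.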

[2] = Stability in human liver microsomes; type: in vitro ADME; details: human, liver microsomes, pH 7.4, Human; 0.5 mg/mL microsomal protein, 1.00 μM compound, NADPH; read-out: Half life T1/2, human liver microsomes
In short: as §2

OCI-AML3 = assay: Cell proliferation inhibition (CellTiter-Glo), OCI-AML3 (NPM1 mutation); type: cell-based; details: Homo sapiens, OCI-AML-3, 168 h, OCI-AML3 cells
In short: as §1

[3] = target: hERG potassium ion channel (Homo sapiens (Human), UniProt Q12809); assay: hERG potassium channel effect test (manual patch clamp, HEK293 cells overexpressing hERG); type: cell-based; details: for inhibition at 30 μM: human, HEK293 cells overexpressing hERG potassium ion channels, read-out: Average inhibition rate of hERG current at the highest compound tested concentration; for IC50: manual patch clamp, highest test concentration 30 μM
Description: Test Example 6: hERG Potassium Channel Effect Test
The hERG inhibition test was performed on some of the example compounds of the present disclosure using the manual electrophysiological patch clamp method. The cell line was derived from HEK293 cells that overexpressed hERG potassium ion channels. The specific experimental protocol was developed by PharmaCore Labs with reference to literature published in peer-reviewed journals and was performed by PharmaCore Labs in accordance with its standard experimental operating procedures. The highest test concentration was 30 μM.

Chain of hERG potassium ion channel (Q12809 whole entry): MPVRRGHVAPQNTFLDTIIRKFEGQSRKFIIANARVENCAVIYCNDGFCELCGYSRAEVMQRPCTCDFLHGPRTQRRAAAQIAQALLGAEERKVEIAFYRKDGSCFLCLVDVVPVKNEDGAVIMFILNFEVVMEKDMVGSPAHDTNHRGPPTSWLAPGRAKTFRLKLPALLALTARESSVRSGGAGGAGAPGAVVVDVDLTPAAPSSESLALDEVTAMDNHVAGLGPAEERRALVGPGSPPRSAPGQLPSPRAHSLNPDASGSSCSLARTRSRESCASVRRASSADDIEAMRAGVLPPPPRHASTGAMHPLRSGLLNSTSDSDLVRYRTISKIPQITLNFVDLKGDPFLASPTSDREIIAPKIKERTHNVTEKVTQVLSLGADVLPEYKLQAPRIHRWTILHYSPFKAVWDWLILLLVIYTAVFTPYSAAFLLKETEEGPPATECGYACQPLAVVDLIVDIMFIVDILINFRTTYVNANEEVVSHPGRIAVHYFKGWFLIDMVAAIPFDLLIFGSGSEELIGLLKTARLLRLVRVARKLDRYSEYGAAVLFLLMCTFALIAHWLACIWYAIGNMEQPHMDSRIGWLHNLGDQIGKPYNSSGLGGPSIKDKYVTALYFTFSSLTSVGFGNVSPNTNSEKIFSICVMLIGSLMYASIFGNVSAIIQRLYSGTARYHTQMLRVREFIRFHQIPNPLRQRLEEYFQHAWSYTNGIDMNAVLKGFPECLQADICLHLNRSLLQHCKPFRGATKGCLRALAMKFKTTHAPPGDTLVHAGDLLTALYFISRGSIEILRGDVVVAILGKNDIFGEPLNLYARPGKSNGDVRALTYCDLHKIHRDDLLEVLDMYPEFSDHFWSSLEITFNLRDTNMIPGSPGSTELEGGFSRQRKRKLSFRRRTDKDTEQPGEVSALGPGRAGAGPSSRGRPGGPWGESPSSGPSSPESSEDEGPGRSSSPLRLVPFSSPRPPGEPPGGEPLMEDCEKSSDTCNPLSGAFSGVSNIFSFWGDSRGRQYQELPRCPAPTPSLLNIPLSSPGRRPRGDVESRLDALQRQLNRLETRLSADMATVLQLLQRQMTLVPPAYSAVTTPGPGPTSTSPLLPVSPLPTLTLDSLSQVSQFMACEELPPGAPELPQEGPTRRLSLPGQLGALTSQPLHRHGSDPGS

GI50 (MOLM-13)	GI50 (MV4-11)	half-life at 1 μM [1]	half-life at 1 μM [2]	GI50 (OCI-AML3)	Structure (SMILES)	inhibition at 30 μM [3]	IC50 [3]
154 nM	56.6 nM	> 2 h	0.614 h	82.5 nM	CC(C)N(C(=O)c1cc(F)ccc1Oc1nncnc1N1CC2(CCN(CC3CC4CCC3CC43CCC(=O)N3)CC2)C1)C(C)C (single isomer, unassigned) [Example 15-1a]	–	–
7.9 nM	13.8 nM	> 2 h	0.522 h	14.2 nM	CCN(C(=O)c1cc(F)ccc1Oc1cncnc1N1CC2(CCN(C[C@H]3CC[C@]4(CC3)CC(COC)(COC)C(=O)N4)CC2)C1)C(C)C [Example 17]	–	–
36.1 nM	14.2 nM	> 2 h	1.25 h	35.2 nM	COCC1(COC)C[C@]2(CC[C@@H](CN3CCC4(CC3)CN(c3ncnnc3Oc3ccc(F)cc3C(=O)N(C(C)C)C(C)C)C4)CC2)NC1=O [Example 20]	13.2%	> 30000 nM
194 nM	53.8 nM	> 2 h	1.47 h	115 nM	COC[C@H]1C[C@]2(CC[C@@H](CN3CCC4(CC3)CN(c3ncnnc3Oc3ccc(F)cc3C(=O)N(C(C)C)C(C)C)C4)CC2)NC1=O [Example 38-1]	10.3%	> 30000 nM
23.3 nM	13.1 nM	1.64 h	1.04 h	21.8 nM	COC[C@@H]1C[C@]2(CC[C@@H](CN3CCC4(CC3)CN(c3ncnnc3Oc3ccc(F)cc3C(=O)N(C(C)C)C(C)C)C4)CC2)NC1=O [Example 38-2]	–	–
